Here are results for six compounds from patent publication EP1149836B1, “Polynalbuphine derivatives” (Hu, Oliver Yoa-Pu, priority 2000, dated 2001).

Several values for one entry are separate records, joined by “and”; a condition that tells them apart may be missing. Equal values may be shown once. Where a name gives a salt, the structure may show the parent alone.

Series [1] in a line: in vitro release of Nalbuphine from vehicles (dialysis bag, UV). The note with it: Fig. 2, p<0.05. It counts as physicochemical.
For series [2] the following is noted: after continuous use for 6 months; cited from earlier work.
The nature of series [3]: cold ethanol tail flick test, dose response and MonoNalbuphine derivative study. To be noted: rats; for maximal analgesic effect found at (dose): intramuscularly injection, Figure 4.
Method: Each group consisted of 6 rats, and each rat was injected once intramuscularly on the rear leg.
The dose for each rat was 25 micromole per kg, intramuscularly.
The time to stop the experiment was set at 40 seconds to prevent the tail from cold sore. No cold sores were found within 40 sec. Five minutes after the drug was given to the rat, the flick test was performed every 10 minutes or more.
The conditions of series [4]: in vivo; cited from earlier work.
Series [5] in a line: half-life of dinalbuphine sebacoyl ester in rat blood, HPLC. It counts as in vitro ADME. The protocol:
• (a) Dinalbuphine sebacoyl ester(SDN) was dissolved in acetonitrile, the concentration was 7.75 mg/ml. • (b) 250 ml of whole blood was collected from rat administered with the thus formed dinalbuphine sebacoyl ester soft drug, and was added with anticoagulant.
(§1) All blood collections were analyzed by HPLC.

A short description of series [6]: half-life of dinalbuphine sebacoyl ester in rabbit blood, HPLC. It counts as in vitro ADME. The protocol: • (a) Dinalbuphine ester sebacoyl ester was dissolved in acetonitrile, the concentration was 5.2 mg/ml. • (b) 150 ml of whole blood was collected from rabbit administered with the thus formed dinalbuphine sebacoyl ester soft drug, and was added with anticoagulant.
as §1

The nature of series [7]: half-life of dinalbuphine sebacoyl ester in dog blood, HPLC. It counts as in vitro ADME. The protocol:
• (a) Dinalbuphine sebacoyl ester was dissolved in acetonitrile, the concentration was 12.5 mg/ml. • (b)200 ml of whole blood was collected from dog administered with the thus formed dinalbuphine sebacoyl ester soft drug, and was added with anticoagulant.
as §1

The nature of series [8]: half-life of dinalbuphine sebacoyl ester in human blood, HPLC. It counts as in vitro ADME. The protocol:
• (a) Dinalbuphine sebacoyl ester was dissolved in acetonitrile, the concentration was 10 mg/ml. • (b) 250 ml of whole blood was collected from human administered with the thus formed dinalbuphine sebacoyl ester soft drug, and was added with anticoagulant.
as §1

A short description of series [9]: analgesic effect after intramuscular injection to rats, polynalbuphine derivative study. The series is classed as in vivo, Sprague Dawley rats. The protocol:
In the experiment, a circulating cold ethanol bath with a temperature maintained at -20°C was set up. After dosing, the rat tail(1/3 from the tip) was immersed in the bath. The latency for the rat to flick its tail from the bath was measured to be the analgesic threshold. The effect of various opium alkaloid preparations can be determined with this test.
The analgesic effect can be calculated as follows: analgesic effect (%) = (flicking time after dosing - flicking time before dosing ) / (test terminated time - flicking time before dosing ) X 100% [formula]
(§2) Six male Sprague Dawley rats (175 to 225 g), and six male guinea pig(200 to 250 g) were used.

The nature of series [10]: clinical / estimated analgesic duration in humans. It counts as in vivo. To be noted: 125 µM/ kg administered to a human body. The protocol:
The analgesic effect was extended to 4-5 days, when the dose administered was below 125 µM/kg. […] The same level of analgesic effect for intramuscular injection to rats was required at 15.625 µM/kg(6.165 mg/kg).
Therefore, the analgesic effect is estimated 4-5 days when 125 µM/ kg of sebacoyl dinalbuphine ester is administered to a human body.
The amount of the aforesaid injection was about 10 ml. However, the analgesic effect could not be maintained 4 to 5 days even upon administration of 88 ml of Malbuphine hydrochloride because of metabolism. Besides, such parenteral volume was not ideal for a single dose. This invention made an improvement. By diluting a single dose of sebacoyl dinalbuphine in 7.15 ml sesame oil form, parenteral administration could maintain the analgesic effect 4 to 5 days.

A short description of series [11]: pharmacokinetic study of long acting preparation in Beagle dog. It counts as in vivo, Beagle dogs. The protocol: Six Beagle dogs were used. Five Beagle dogs were intramuscularly injected with 30 mg/kg long acting sebacoyl dinalbuphine ester oily parenteral administration respectively, and another one was injected with 100 mg/kg long acting sebacoyl dinalbuphine ester oily parenteral administration. Blood samples were collected through the veins in front limbs of the dogs at 1, 2, 6, 24, 30, 48, 54, 72, 78, 96, 102, 120, 168, 192 hours. […] The relationship between time and concentration was analyzed by PCNONLIN computer program. Two-compartment model and pharmacokinetic parameters were calculated to depict absorption, distribution, metabolism, and excretion of drugs in the dogs.

A short description of series [12]: analgesic effect after intramuscular injection to guinea pigs. The series is classed as in vivo, guinea pig. To be noted: 500 µM/kg and 250 µM/kg, Figure 7.
Source text: as §2

Series [13] can be described thus: pharmacokinetic study of long acting preparation in Beagle dog. The note with it: in vivo, comparison with sebacoyl dinalbuphine ester, read-out: half life for excretion (converted). Also on record: species or system Beagle dogs.

Broadly, the half-life is the time needed for the level to fall by half in the phase considered.

For the compound `Oc1ccc2c3c1O[C@H]1[C@@H](O)CC[C@@]4(O)[C@@H](C2)N(CC2CCC2)CC[C@]314` [Nalbuphine], the “amount of released Nalbuphine free base” value in series [1] (between 17 and 28 hours) is “less in the preparation with sesame oil than with peanut oil and the phosphate buffer”. The release rate entry in series [1] (sesame oil as the vehicle vs the other three preparations, between 1 and 11 hours) is given as “slowest release rate”. Moreover, the “addiction, synergistic effect and respiratory inhibition” value in series [2] was “no significant addiction and synergistic effect was found, but only slight respiratory inhibition”. In series [3] (25 micromole per kg intramuscularly, in sesame oil, compared with each preparation of MonoNalbuphine derivatives, Fig. 5), the analgesic duration entry was “significantly shorter”.

Turning to `Oc1ccc2c(c1)[C@@]13CCCC[C@@]1(O)[C@@H](C2)N(CC1CCC1)CC3` [Butorphanol], in series [4], the “dose needed to elicit the same analgesic effect” value is on record as 2 mg.

In the case of `O=C(CCCCCCCCC(=O)Oc1ccc2c3c1O[C@H]1[C@@H](O)CC[C@@]4(O)[C@@H](C2)N(CC2CCC2)CC[C@]314)Oc1ccc2c3c1O[C@H]1[C@@H](O)CC[C@@]4(O)[C@@H](C2)N(CC2CCC2)CC[C@]314` [sebacoyl dinalbuphine ester], the “converted time, which converts 90% dinalbuphine sebacoyl ester(SDN) into Nalbuphine” value in series [5] (rat) turned out to be 10 min; in series [6] (rabbit), 25 min; in series [7] (dog), 95 min; in series [8] (human), 30 min. For the same compound, the half-life was determined as 2.8 min in [5] (rat blood test, read-out: half life); 2.8 min in series [5] (rat plasma, read-out: Elimination Half-life); 2.2 ± 0.5 min in series [5] (rat whole blood, n=3, mean± S.E, read-out: Elimination Half-life); 2.3 ± 0.6 min in series [5] (red blood cells, rat red blood cell, n=3, mean± S.E, read-out: Elimination Half-life); 7 min in series [6] (rabbit blood test, read-out: half life); 6.98 ± 0.03 min in [6] (rabbit plasma, n=3, mean± S.E, read-out: Elimination Half-life). The half-life was determined as 14.9 ± 1.3 min in series [6] (rabbit whole blood, n=3, mean± S.E, read-out: Elimination Half-life); 26.2 ± 4.8 min in series [6] (red blood cells, rabbit red blood cell, n=3, mean± S.E, read-out: Elimination Half-life); 27.8 min in [7] (dog blood test, read-out: half life); 27.8 ± 0.5 min in [7] (dog plasma, n=3, read-out: Elimination Half-life); 30.5 ± 0.8 min in series [7] (dog whole blood, n=3, read-out: Elimination Half-life); 33.4 ± 1.4 min in series [7] (red blood cells, dog red blood cell, n=3, read-out: Elimination Half-life). In addition, the half-life worked out at 9 min in [8] (human blood test, read-out: half life); 9 ± 0.4 min in series [8] (human plasma, n=3, read-out: Elimination Half-life); 8.8 ± 0.4 min in [8] (human whole blood, n=3, read-out: Elimination Half-life); 7.7 ± 0.4 min in series [8] (red blood cells, human red blood cell, n=3, read-out: Elimination Half-life). The “50% analgesic effect was extended to” value in series [9] (intramuscular injection of 125 µM/kg, Figure 9) amounted to 88 h. In addition, the analgesic effects entry in series [9] (intramuscular injection, 7.8125, 31.25, 125 µM/kg, Figure 8) is “proportional to the dose administered”. The “analgesic effect relative to Nalbuphine hydrochloride” value in [9] (intramuscular, Figure 9) is given as 8.8 times. Further, the “analgesic effect was extended to” value in series [9] (intramuscular, dose administered below 125 µM/kg) was 4 to 5 days. Further, the “analgesic effect estimated (duration)” value in [10] is 4 to 5 days. For the same compound, the MRT was 78.8 H in [11] (Beagle Dog 2, i.m., Dose 24.3 mg/kg); 127.2 H in series [11] (Beagle Dog 2, i.m., Dose 81.0 mg/kg); 73.2 H in series [11] (Beagle dogs, 30 mg/kg i.m. oily injection, Mean of five dogs); 84.3 H and 78.8 H and 61.1 H and 62.7 H and 79.1 H in [11] (Beagle dogs, 30 mg/kg i.m. oily injection, individual dogs 1-5, listed as SDN, 30 mg/kg). In addition, the “kinetic across two doses” value in [11] (Beagle dogs, Table 6 vs Table 7) is “linear kinetic”. In addition, the “absorption in injection oil vehicle” value in series [11] (Beagle dogs, i.m., Figures 10 and 11) was “zero order”.

On to `Oc1ccc2c3c1O[C@H]1[C@@H](O)CC[C@@]4(O)[C@@H](C2)N(CC2CCC2)CC[C@]314` [Nalbuphine hydrochloride], for which the analgesic effects result in series [9] (intramuscular injection, 15.625, 62.5, 250 µM/kg, Figure 6) is “significant analgesic effects”; in series [12], “significant analgesic effects”. Besides, the half-life in series [13] is approximately 60 min. Also, the “maximal analgesic effect found at (dose)” value in series [3] came to 100 mg/kg.

Consider `CN1CC[C@]23c4c5ccc(O)c4O[C@H]2[C@@H](O)C=C[C@H]3[C@H]1C5` [Morphine], for which the “dose needed to elicit the same analgesic effect” value in series [4] was 10 mg.

For `CN1CC[C@]23c4c5ccc(O)c4O[C@H]2[C@@H](O)C=C[C@H]3[C@H]1C5.Cl` [Morphine hydrochloride], the “maximal analgesic effect found at (dose)” value in series [3] amounted to 10 mg/kg.
